Laboratory results reported in patent US20090221651A1, “CHEMICAL PRECONDITIONING AS A PREVENTATIVE OR TREATMENT FOR EXCITOTOXIC SYNAPTIC DAMAGE” (priority 2005, published 2009).
“And” between values parts separate entries of the source, which are not always exact repeats. Equal values may be shown once. “Also recorded” adds a separate entry of the source.

Tests used:
Assay type in all cases: cell-based, rat
CA1 pyramidal neurons [1] = experiment: Dendritic beading after high-frequency Schaffer collateral stimulation (HFS) in acute hippocampal slices; conditions: for effect on HFS-induced dendritic beading in cPAF-exposed slices: BAPTA 5 mM in pipette, Ac-DEVD-CHO 10 μM intracellular, L-NAME 100 μM, diazoxide 30 μM bath 40 to 60 min prior to HFS; for rate of beading following HFS in cPAF-exposed neurons: 1 μM cPAF plus CV-3988 10 μM, BN52021 2 μM or L-NAME 100 μM
Method: (§1) Imaging and LTP in acute hippocampal slices. Brains were removed from 17-30 day-old male Sprague-Dawley rats anesthetized with ketamine (180 μg/g), submerged them in ice-cold solution (in mM: NaCl 125, KCl 5, NaH2PO4 1.25, NaHCO3 28, CaCl2 0.5, MgCl2 4, D-glucose 25, kynurenic acid 1, bubbled with 95% O2/5% CO2), and cut 250 μm coronal slices using a vibroslice. Slices recovered in artificial cerebrospinal fluid (aCSF, in mM: NaCl 125, KCl 2.5, NaH2PO4 1.25, NaHCO3 25, CaCl2 2, MgCl2 1, D-glucose 25, bubbled with 95% O2/5% CO2) for >90 min prior to experiments.
(§2) Slices were transferred to a custom-made recording chamber perfused (1 ml/min) with aCSF containing 1 μM cPAF or vehicle. Membrane potentials from CA1 pyramidal neurons were recorded via whole-cell patch clamp, using 4-6 MΩ electrodes (filled with, mM: KCl 20, potassium gluconate 130, EGTA 0.5, HEPES10, MgSO4 2, ATP 2.5, GTP 0.5, pH 7.3) and a Multiclamp 700A amplifier with pClamp 9 software (Axon Instruments). Afferents were stimulated by constant current pulses (200 μs) via a bipolar stimulating electrode 50-200 μm away in the stratum radiatum. 10 μM bicuculline were included in the aCSF to isolate EPSPs, and adjusted stimulating intensity to elicit EPSPs 30% of maximal. After >10 min of test pulses (every 15 s), […] a high-frequency stimulus (HFS; three 1 s, 100 Hz trains, 20 s apart, at test-pulse intensity), then resumed test pulses for ≧50 min. […] Rising EPSP slope was used instead of peak amplitude as an index of synaptic efficacy to, avoid complication by action potentials evoked by some EPSPs after HFS. Amplitude (maximal sustained depolarization) and duration (at >25% maximal amplitude) of depolarization during HFS were also quantified.
Fluorescent images of dendrites from recorded cells were collected before and after HFS, after allowing 30 μM Alexa Fluor 568 hydrazide (Molecular Probes) in the recording electrode to fill the cell for >20 min. Using an external shutter to limit light exposure, image frames were captured at multiple focal planes and combined optimally-focused portions of these frames to display a composite image.
(§3) Dendrite morphology. For in vitro experiments pre- and post-exposure images of the same cells were compared. A neuron was considered beaded if its dendrites developed any focal swellings during the experiments (10, 14), though multiple dendrites were typically involved. Changes in spine number were determined by counting spines on the same dendrites before and after treatment.
(§4) Statistics. Differences in frequencies of dendritic beading were analyzed by Chi square, and changes in dendritic spine number by paired t-test. EPSP slope data were pooled over 10-minute intervals and used two-tailed t-tests to compare between groups or time points. A 0.05 significance level was used for all tests.

CA1 pyramidal neurons [2] = experiment: EPSP potentiation (LTP) after HFS in acute hippocampal slices, whole-cell patch clamp; conditions: for effect on synaptic potentiation / LTP in cPAF-exposed slices: BAPTA 5 mM, Ac-DEVD-CHO 10 μM, diazoxide 30 μM, PAF-R antagonists
Method: as §1, §2, §4

[3] = test system: dissociated hippocampal cultures; experiment: Dendritic beading in cultured neurons after depolarizing KCl pulses; conditions: for dendritic beading after 1 s KCl pulses in cPAF-exposed cultures: CNQX 10 μM together with AP-5 50 μM
Method: (§5) Primary hippocampal cultures and dendrite imaging. Dissociated hippocampal cultures from embryonic (E18) rats were prepared as previously described (53), plated on coverslips coated with poly-D-lysine and mouse laminin (reagents from Sigma-Aldrich unless otherwise noted) in Neurobasal plus B-27 media (GIBCO). After one week, 53 mM NaCl was added (to match solutions for physiological experiments) and antioxidants were removed from the media. Experiments were repeated using cultures from multiple dissections. Rodents were housed and treated in compliance with University of Rochester Committee on Animal Resources and NIH policies, and New York State and federal statutes.
(§6) At 20-24 days in vitro (DIV) neurons were transfected with EYFP (Clontech) or mRFP-1 (kind gift of Roger Tsien) vectors driven by CMV promoter, in a 1:2 ratio with Lipofectamine 2000 (Invitrogen). Serial fluorescence images of individual, live neurons (23-30 DIV) before and after exposure to 130 nM cPAF (Biomol) and/or synaptic stimulation by KCl were captured. For 60-hour exposure experiments, a 10 mM stock solution of cPAF (in EtOH) or vehicle was diluted into culture media. Neuronal survival was measured by Hoechst nuclear staining and propidium iodide exclusion.
For acute KCl stimulation experiments, coverslips were perfused in a custom-made chamber (200 μl) with bath solution (in mM: NaCl 139.5, KCl 2.5, CaCl2 2, MgCl2 1, glucose 24, HEPES 5, glycine 0.01, pH 7.3) at […], and exposed cultures to vehicle or cPAF for 20-90 min prior to stimulation. KCl (90 mM) was locally applied over the entire dendritic arbor of EYFP- or mRFP-expressing neurons in three 1- or 5-s pulses (10 s apart) using an 8-channel drug delivery system (ALA Scientific Instruments). In some experiments BN52021 (Biomol) or CNQX and AP-5 were added.
as §3, §4

CA1 pyramidal neurons [4] = experiment: Membrane potential and depolarization during HFS in hippocampal slices
Method: as §1
Slices were transferred to a custom-made recording chamber perfused (1 ml/min) with aCSF containing 1 μM cPAF or vehicle. Membrane potentials from CA1 pyramidal neurons were recorded via whole-cell patch clamp, using 4-6 MΩ electrodes (filled with, mM: KCl 20, potassium gluconate 130, EGTA 0.5, HEPES10, MgSO4 2, ATP 2.5, GTP 0.5, pH 7.3) and a Multiclamp 700A amplifier with pClamp 9 software (Axon Instruments). Afferents were stimulated by constant current pulses (200 μs) via a bipolar stimulating electrode 50-200 μm away in the stratum radiatum. 10 μM bicuculline were included in the aCSF to isolate EPSPs, and adjusted stimulating intensity to elicit EPSPs 30% of maximal. […] Amplitude (maximal sustained depolarization) and duration (at >25% maximal amplitude) of depolarization during HFS were also quantified.

hippocampal slices = experiment: Rhodamine 123 fluorescence (mitochondrial depolarization) after HFS in hippocampal slices; conditions: 1 μM cPAF
Method: The present experiments measure changes in mitochondrial membrane potential during and after HFS in hippocampal slices using the rhodamine 123, a cationic dye that distributes across the mitochondrial membrane in a voltage-sensitive manner. When loaded into hippocampal slices at a dose of 26 μM, rhodamine 123 accumulates in the mitochondria at high concentrations that causes its fluorescence to quench; if the mitochondria are subsequently depolarized, rhodamine 123 is released into the cytoplasm and its fluorescent signal increases. Mitochondrial hyperpolarization, conversely, drives more dye from the cytoplasm into the mitochondria, increasing quenching and reducing the signal. Reliability of this interpretation was confirmed by control experiments using FCCP and oligomycin to respectively depolarize and hyperpolarize the mitochondria.

[5] = test system: dissociated hippocampal cultures; experiment: 60-hour cPAF exposure of dissociated hippocampal cultures: dendritic beading, spine number, neuronal survival; conditions: 130 nM cPAF, 60-hour exposure
Method: as §5, §6, §3, §4

[6] = cPAF-exposed slices plus compound (BN52021 2 μM, CV-3988 10 μM, Ac-DEVD-CHO 10 μM, diazoxide 30 μM), 40 to 50 min
[7] = cPAF-treated slices plus PAF-R antagonist
[8] = 130 nM cPAF, BN52021 10 μM pre-treatment

Ac-DEVD-CHO
effect on HFS-induced dendritic beading in cPAF-exposed slices (CA1 pyramidal neurons [1]): prevented dendritic beading
effect on synaptic potentiation / LTP in cPAF-exposed slices (CA1 pyramidal neurons [2]): failed to rescue LTP; also recorded: failed to restore a lasting potentiation
EPSP potentiation following HFS (CA1 pyramidal neurons [2]; cPAF-exposed slices plus Ac-DEVD-CHO 10 μM, 0 to 10 min): 1.97±0.28 relative to baseline
EPSP potentiation following HFS (CA1 pyramidal neurons [2]; [6]): 1.22±0.19 relative to baseline

CCCCCCCCCCCCCCCCCCNC(=O)OCC(COP(=O)([O-])OCC[n+]1ccsc1)OC (stereo not shown) [CV-3988]
rate of beading following HFS in cPAF-exposed neurons (CA1 pyramidal neurons [1]): 14%
cells with dendritic beading elicited by HFS (CA1 pyramidal neurons [1]; [7]): 1 of 7
EPSP potentiation following HFS (CA1 pyramidal neurons [2]; [6]): 1.07±0.13 relative to baseline

CC1C(=O)OC2C(O)C34C5CC(C(C)(C)C)C36C(OC(=O)C6O)OC4(C(=O)O5)C12O (stereo not shown) [BN52021]
rate of beading following HFS in cPAF-exposed neurons (CA1 pyramidal neurons [1]): 10%
cells with dendritic beading elicited by HFS (CA1 pyramidal neurons [1]; [7]): 1 of 10
dendritic beading after 1 s KCl pulses in cPAF-exposed cultures [3, 8]: no cells developed beading; also recorded: blocked the increase in vulnerability
cells beaded after 5 s KCl pulses ([3]; cPAF-exposed, BN52021 10 μM pre-treatment): 86%
EPSP potentiation following HFS (CA1 pyramidal neurons [2]; [6]): 1.29±0.05 relative to baseline

O=C(O)CN(CC(=O)O)c1ccccc1OCCOc1ccccc1N(CC(=O)O)CC(=O)O [BAPTA]
effect on HFS-induced dendritic beading in cPAF-exposed slices (CA1 pyramidal neurons [1]): prevented dendritic beading; also recorded: eliminated dendritic beading
effect on synaptic potentiation / LTP in cPAF-exposed slices (CA1 pyramidal neurons [2]): eliminated synaptic potentiation

COC(=O)[C@@H](N)CCCNC(=N)N[N+](=O)[O-] [L-NAME]
rate of beading following HFS in cPAF-exposed neurons (CA1 pyramidal neurons [1]): 57%
effect on HFS-induced dendritic beading in cPAF-exposed slices (CA1 pyramidal neurons [1]): no protection; also recorded: no effect

N#Cc1cc2[nH]c(=O)c(=O)[nH]c2cc1[N+](=O)[O-] [CNQX]
dendritic beading after 1 s KCl pulses in cPAF-exposed cultures [3, 8]: prevented

NC(CCCP(=O)(O)O)C(=O)O (stereo not shown) [AP-5]
dendritic beading after 1 s KCl pulses in cPAF-exposed cultures [3, 8]: prevented

CCCCCCCCCCCCCCCCOC[C@H](COP(=O)([O-])OCC[N+](C)(C)C)OC(=O)NC [cPAF]
baseline membrane potential (CA1 pyramidal neurons [4]; 1 μM cPAF for up to 7 hours): −63±3.6 mV
duration of depolarization during HFS (CA1 pyramidal neurons [4]; cPAF-exposed neurons): 693 ± 296 ms
recorded neurons with dendritic beading following HFS (CA1 pyramidal neurons [1]; 1 μM cPAF for 20 to 60 minutes prior to recording): 57%
delay to appearance of HFS-induced dendritic beading (CA1 pyramidal neurons [1]; cPAF-exposed cells): 15 to 35 min
cells with dendritic beading elicited by HFS (CA1 pyramidal neurons [1]; cPAF-treated slices): 11 of 19
cells beaded in response to three 1 s KCl pulses ([3]; 130 nM cPAF, acute 20 to 90 min exposure): 90%
EPSP potentiation following HFS (CA1 pyramidal neurons [2]; 1 μM cPAF, cells that did not develop dendritic beading, 40 to 50 min): 1.60±0.26 relative to baseline
EPSP potentiation following HFS (CA1 pyramidal neurons [2]; 1 μM cPAF, cells whose dendrites beaded, 40 to 50 min): 0.84±0.12 relative to baseline
increase in rhodamine 123 fluorescence compared to control slices (hippocampal slices): four-fold larger; also recorded: four-fold greater
peak increase in rhodamine 123 fluorescence above baseline following HFS (hippocampal slices; CA1 stratum radiatum, 55 s after start of HFS): 5.90±1.86%
decrease in numbers of dendritic spines [5]: 45.1±5.0% and 45±5%
neuronal survival by Hoechst and propidium iodide staining [5]: 80.2±4.3%
neurons that developed dendritic beading ([5]; serially-imaged cells): 56%
